The values that follow come from patent publication US10125098B2, “Therapeutic compounds and methods of use thereof” (GENENTECH, INC., priority 2014, dated 2018).

In one data set the target is T1, human NaV1.7 (Homo sapiens, UniProt Q15858).
T1 construct: permanently transfected with an expression vector containing the full-length cDNA coding for the desired human sodium channel α-subunit; expressed in transfected cells; host or cells: HEK-293
Kind of data set: Patch voltage clamp electrophysiology assay (EP), NaV1.7. The data set is classed as cell-based. Particulars: HEK-293 cells stably expressing NaV1.7 with β1 subunit; whole-cell patch clamp, membrane potential −60 mV (inactivated state). The essentials:
(§1)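 HEK-293 cells stably expressing human α-subunit with β1; whole-cell patch clamp (PatchXpress or manual), ambient temperature, pH 7.4 external NaCl, CsF internal. Held at −60 mV (full inactivation), stepped to −150 mV for 20 ms, then test pulse; percent current decrease after compound wash-on taken as block.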
(The patch-clamp technique gives a direct electrical read-out from membranes.)

In a further data set the target is T2, NaV1.5 (Homo sapiens, UniProt Q14524).
T2 construct: permanently transfected with an expression vector containing the full-length cDNA coding for the desired human sodium channel α-subunit; expressed in transfected cells; host or cells: HEK-293
T2 sequence (Q14524 whole entry): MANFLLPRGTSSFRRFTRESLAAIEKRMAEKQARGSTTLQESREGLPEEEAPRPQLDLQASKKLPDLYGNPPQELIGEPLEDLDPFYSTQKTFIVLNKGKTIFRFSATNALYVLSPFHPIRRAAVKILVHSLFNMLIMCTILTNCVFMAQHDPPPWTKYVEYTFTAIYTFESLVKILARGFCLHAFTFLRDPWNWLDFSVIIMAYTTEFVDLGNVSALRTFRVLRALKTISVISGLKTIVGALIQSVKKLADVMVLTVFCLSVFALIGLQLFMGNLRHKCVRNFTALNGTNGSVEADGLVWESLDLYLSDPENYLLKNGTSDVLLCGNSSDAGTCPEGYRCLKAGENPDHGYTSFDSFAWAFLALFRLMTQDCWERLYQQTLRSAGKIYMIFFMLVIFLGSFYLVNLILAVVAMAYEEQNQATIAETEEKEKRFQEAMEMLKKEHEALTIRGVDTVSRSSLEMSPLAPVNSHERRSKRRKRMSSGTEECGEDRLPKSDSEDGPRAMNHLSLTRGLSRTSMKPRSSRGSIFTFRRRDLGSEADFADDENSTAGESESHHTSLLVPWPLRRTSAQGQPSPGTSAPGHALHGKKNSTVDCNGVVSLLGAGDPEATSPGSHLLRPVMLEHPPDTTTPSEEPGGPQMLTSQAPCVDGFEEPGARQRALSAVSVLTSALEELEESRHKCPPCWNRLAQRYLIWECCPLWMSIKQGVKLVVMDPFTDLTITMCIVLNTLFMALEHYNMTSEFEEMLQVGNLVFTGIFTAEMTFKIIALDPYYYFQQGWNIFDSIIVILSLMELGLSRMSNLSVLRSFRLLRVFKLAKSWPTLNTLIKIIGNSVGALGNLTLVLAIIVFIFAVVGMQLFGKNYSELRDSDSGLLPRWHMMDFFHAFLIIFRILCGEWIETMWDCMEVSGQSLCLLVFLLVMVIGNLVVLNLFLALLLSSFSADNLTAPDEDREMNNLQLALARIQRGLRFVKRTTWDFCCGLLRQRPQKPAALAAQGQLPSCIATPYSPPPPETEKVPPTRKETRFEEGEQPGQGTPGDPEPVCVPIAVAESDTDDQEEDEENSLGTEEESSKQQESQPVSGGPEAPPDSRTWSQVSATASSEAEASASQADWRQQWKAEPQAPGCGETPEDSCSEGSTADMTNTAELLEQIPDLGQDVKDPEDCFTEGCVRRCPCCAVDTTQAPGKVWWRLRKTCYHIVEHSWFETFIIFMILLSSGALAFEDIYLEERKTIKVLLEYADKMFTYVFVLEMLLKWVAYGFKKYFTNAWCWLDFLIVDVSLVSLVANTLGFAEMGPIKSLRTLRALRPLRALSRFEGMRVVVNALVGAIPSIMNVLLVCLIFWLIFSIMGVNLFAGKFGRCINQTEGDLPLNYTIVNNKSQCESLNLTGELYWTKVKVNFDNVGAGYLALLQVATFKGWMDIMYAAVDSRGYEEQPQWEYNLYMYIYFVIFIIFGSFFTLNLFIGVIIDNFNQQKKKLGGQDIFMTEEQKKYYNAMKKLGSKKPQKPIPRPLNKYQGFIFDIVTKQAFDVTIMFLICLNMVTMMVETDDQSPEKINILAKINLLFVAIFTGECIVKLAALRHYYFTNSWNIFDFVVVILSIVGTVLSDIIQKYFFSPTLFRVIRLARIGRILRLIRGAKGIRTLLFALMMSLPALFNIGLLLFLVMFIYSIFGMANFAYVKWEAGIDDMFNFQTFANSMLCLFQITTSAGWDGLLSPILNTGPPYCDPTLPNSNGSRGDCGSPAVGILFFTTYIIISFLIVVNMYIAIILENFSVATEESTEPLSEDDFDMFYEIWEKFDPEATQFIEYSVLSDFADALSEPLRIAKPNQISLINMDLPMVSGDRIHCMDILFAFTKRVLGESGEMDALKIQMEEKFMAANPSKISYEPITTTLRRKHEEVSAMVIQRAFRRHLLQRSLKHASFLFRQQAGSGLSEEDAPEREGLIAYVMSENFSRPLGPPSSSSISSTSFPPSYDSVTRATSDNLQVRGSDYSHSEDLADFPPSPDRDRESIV
Kind of data set: Patch voltage clamp electrophysiology assay (EP), NaV1.5. Particulars: HEK-293 cells stably expressing NaV1.5 with β1 subunit, whole-cell patch clamp, membrane potential −60 mV (inactivated state). Format: cell-based. The essentials: as §1

A further data set has as its target T3, hNav1.7 (Homo sapiens, UniProt Q15858).
T3 construct: expressed in transfected cells
The experiment in a line: Tritiated compound binding (LBA) to membranes from cells expressing hNav1.7 and the β1 subunit, competitive binding. The settings on record: competitive binding vs 100 pM [3H]compound, 18 h, room temperature, membranes with hNav1.7 and β1 subunit. The method, boiled down:
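Membranes from cells expressing hNav1.7 with β1 were incubated 18 h at room temperature with 100 pM tritiated formula (I) compound and increasing test compound, in 100 mM NaCl, 20 mM Tris HCl pH 7.4, 0.01% BSA.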

[1] abbreviates: human, HEK-293 cells stably expressing human NaV1.5 with β1 subunit, pH 7.4.

Like-named read-outs stand apart in the source and are kept apart here. Some results are limits rather than exact numbers.

T1 sequence (Q15858 1-1977 isoform Q15858-3): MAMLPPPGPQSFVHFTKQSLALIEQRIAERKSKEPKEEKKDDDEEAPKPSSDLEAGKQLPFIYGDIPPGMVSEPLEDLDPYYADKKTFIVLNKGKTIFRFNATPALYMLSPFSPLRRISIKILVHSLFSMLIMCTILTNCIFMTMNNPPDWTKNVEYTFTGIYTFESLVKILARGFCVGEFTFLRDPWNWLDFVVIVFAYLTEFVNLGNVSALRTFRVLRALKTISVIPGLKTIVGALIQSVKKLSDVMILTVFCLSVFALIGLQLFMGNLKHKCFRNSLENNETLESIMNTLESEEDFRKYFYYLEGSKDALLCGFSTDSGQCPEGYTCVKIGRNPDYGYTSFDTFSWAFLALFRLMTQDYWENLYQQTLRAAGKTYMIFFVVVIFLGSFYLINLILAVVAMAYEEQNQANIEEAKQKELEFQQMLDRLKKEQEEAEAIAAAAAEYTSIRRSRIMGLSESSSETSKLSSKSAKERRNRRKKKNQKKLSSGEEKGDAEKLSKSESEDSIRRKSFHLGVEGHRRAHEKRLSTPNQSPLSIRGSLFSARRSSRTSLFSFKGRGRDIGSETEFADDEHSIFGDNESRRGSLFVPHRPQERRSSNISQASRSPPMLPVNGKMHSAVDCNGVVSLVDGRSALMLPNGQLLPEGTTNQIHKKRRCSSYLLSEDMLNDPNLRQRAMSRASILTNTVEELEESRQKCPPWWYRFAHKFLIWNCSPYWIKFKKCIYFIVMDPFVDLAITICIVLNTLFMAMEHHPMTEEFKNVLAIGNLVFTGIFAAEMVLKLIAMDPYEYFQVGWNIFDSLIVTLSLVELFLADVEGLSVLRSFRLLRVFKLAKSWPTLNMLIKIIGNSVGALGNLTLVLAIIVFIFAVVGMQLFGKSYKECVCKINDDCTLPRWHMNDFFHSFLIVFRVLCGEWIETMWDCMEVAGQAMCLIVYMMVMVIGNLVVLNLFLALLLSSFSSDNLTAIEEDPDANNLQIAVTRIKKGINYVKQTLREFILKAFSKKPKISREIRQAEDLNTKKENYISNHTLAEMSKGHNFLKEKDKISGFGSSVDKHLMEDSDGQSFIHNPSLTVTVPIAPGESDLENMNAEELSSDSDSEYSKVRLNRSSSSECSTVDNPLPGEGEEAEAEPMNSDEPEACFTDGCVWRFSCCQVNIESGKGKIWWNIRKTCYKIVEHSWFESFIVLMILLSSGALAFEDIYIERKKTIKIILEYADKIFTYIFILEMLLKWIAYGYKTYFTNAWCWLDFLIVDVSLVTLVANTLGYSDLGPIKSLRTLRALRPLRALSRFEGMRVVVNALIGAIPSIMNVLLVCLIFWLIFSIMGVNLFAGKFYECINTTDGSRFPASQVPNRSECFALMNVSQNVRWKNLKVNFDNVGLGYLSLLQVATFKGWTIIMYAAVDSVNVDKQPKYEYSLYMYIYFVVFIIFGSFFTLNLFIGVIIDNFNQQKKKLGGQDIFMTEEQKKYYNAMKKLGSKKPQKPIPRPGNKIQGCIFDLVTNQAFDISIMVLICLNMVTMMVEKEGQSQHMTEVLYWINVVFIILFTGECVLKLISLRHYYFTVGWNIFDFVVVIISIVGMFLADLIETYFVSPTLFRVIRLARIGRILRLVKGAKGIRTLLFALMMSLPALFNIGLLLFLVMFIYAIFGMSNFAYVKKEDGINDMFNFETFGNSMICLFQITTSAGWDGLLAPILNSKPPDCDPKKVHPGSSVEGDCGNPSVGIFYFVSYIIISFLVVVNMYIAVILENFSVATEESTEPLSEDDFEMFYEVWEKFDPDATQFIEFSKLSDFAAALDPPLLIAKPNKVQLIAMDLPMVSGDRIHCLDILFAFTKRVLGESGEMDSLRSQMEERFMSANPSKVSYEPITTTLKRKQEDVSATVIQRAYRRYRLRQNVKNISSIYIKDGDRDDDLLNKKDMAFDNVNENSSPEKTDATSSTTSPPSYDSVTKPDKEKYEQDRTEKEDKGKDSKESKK
T1 sequence (Q07699 19-218 partner): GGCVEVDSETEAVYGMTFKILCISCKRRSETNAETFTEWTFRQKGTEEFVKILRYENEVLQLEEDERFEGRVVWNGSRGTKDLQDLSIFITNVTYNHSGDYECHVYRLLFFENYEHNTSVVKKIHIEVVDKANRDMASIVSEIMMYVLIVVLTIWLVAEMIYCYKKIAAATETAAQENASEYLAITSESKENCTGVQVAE
T3 sequence (Q15858 1-1977 isoform Q15858-3): as the sequence (Q15858 1-1977 isoform Q15858-3) above
T3 sequence (Q07699 19-218 partner): as the sequence (Q07699 19-218 partner) above

Regarding `O=C(O)[C@@H]1[C@@H](F)CCN1C(=O)c1cc(C2CC2)c(OCC23CC4CC(CC(C4)C2)C3)cc1F` [Example 64, (2R,3S)-1-(4-((adamantan-1-yl)methoxy)-5-cyclopropyl-2-fluorobenzoyl)-3-fluoropyrrolidine-2-carboxylic acid], the results for the IC50 against human NaV1.7, at NaV1.5 (read-out: Nav1.5) and on hNav1.7 were 790 nM, 8500 nM and 60 nM, respectively.
Regarding `O=C(O)C1CCN(C(=O)c2cc(C3CC3)c(OCC34CC5CC(CC(C5)C3)C4)cc2F)C1` (stereo not drawn) [Example 65, 1-(4-(adamantan-1-ylmethoxy)-5-cyclopropyl-2-fluorobenzoyl)pyrrolidine-3-carboxylic acid], the IC50 against human NaV1.7 was 5300 nM; on NaV1.5 (read-out: Nav1.5) it was 23000 nM; on hNav1.7, not below 10000 nM.
In the case of `CC(C)[C@H](NC(=O)c1cc(C2CC2)c(OCC23CC4CC(CC(C4)C2)C3)cc1F)C(=O)O` [Example 66, (S)-2-(4-(adamantan-1-ylmethoxy)-5-cyclopropyl-2-fluorobenzamido)-3-methylbutanoic acid], the IC50 against human NaV1.7 was 800 nM; on NaV1.5 (read-out: Nav1.5), 8100 nM; at hNav1.7 it was 70 nM.
In the case of `CC(C)[C@@H](C(=O)O)N(C)C(=O)c1cc(C2CC2)c(OCC23CC4CC(CC(C4)C2)C3)cc1F` [Example 67, N-(4-(adamantan-1-ylmethoxy)-5-cyclopropyl-2-fluorobenzoyl)-N-methyl-L-valine], the figures for the IC50 on human NaV1.7, on NaV1.5 (read-out: Nav1.5) and on hNav1.7 were 3000 nM, 7500 nM and 1000 nM, respectively.
`CC1(C)CCC(COc2cc(F)c(C(=O)N3CCC[C@H]3C(=O)O)cc2C2CC2)CC1` [Example 68, (S)-1-(5-cyclopropyl-4-((4,4-dimethylcyclohexyl)methoxy)-2-fluorobenzoyl)pyrrolidine-2-carboxylic acid]: the results for the IC50 on human NaV1.7, on NaV1.5 (read-out: Nav1.5) and on hNav1.7 were 520 nM, 19000 nM and 100 nM, respectively.
On to `O=C(O)[C@@H]1CCCN1C(=O)c1cc(C2CC2)c(OCC23CCCCC2C3)cc1F` (stereo partly drawn) [Example 69, (4-(bicyclo[4.1.0]heptan-1-ylmethoxy)-5-cyclopropyl-2-fluorobenzoyl)-L-proline], for which the results for the IC50 against human NaV1.7, against NaV1.5 (setting [1]) and at hNav1.7 were 520 nM, not below 30000 nM and 170 nM, respectively.
For `O=C(O)[C@@H]1CCCN1C(=O)c1cc(C2CC2)c(OC2C3CC4CC(C3)CC2C4)cc1F` (stereo partly drawn) [Example 70, (S)-1-(4-(adamantan-2-yloxy)-5-cyclopropyl-2-fluorobenzoyl)pyrrolidine-2-carboxylic acid], the IC50 is 1600 nM against human NaV1.7, not below 30000 nM against NaV1.5 (setting [1]) and 310 nM on hNav1.7.
With `O=C(O)[C@@H]1CCCN1C(=O)c1cc(F)c(OCC23CC4CC(CC(C4)C2)C3)cc1F` [Example 71, (4-(adamantan-1-ylmethoxy)-2,5-difluorobenzoyl)-L-proline], the IC50 against human NaV1.7 was 11000 nM; against NaV1.5 (setting [1]), not below 30000 nM; at hNav1.7, 6100 nM.
Turning to `O=C(O)C1COCCN1C(=O)c1cc(C2CC2)c(OCC23CC4CC(CC(C4)C2)C3)cc1F` (stereo not drawn) [Example 72, 4-(4-(adamantan-1-ylmethoxy)-5-cyclopropyl-2-fluorobenzoyl)morpholine-3-carboxylic acid], the figures for the IC50 against human NaV1.7, on NaV1.5 (read-out: Nav1.5) and on hNav1.7 were 5600 nM, 24000 nM and 3600 nM, respectively.
Regarding `O=C(N[C@H](C(=O)O)C1CC1)c1cc(C2CC2)c(OCC23CC4CC(CC(C4)C2)C3)cc1F` [Example 74, (S)-2-(4-(adamantan-1-ylmethoxy)-5-cyclopropyl-2-fluorobenzamido)-2-cyclopropylacetic acid], the IC50 against human NaV1.7 worked out at 700 nM; on NaV1.5 (read-out: Nav1.5), 7500 nM; at hNav1.7 it was 24 nM.
In the case of `O=C(O)[C@@H]1[C@@H](O)CCN1C(=O)c1cc(C2CC2)c(OCC23CC4CC(CC(C4)C2)C3)cc1F` [Example 75, (2S,3S)-1-(4-(adamantan-1-ylmethoxy)-5-cyclopropyl-2-fluorobenzoyl)-3-hydroxypyrrolidine-2-carboxylic acid], the IC50 against human NaV1.7 is 1300 nM; on NaV1.5 (read-out: Nav1.5), 25000 nM; on hNav1.7, 600 nM.
As for `CO[C@H]1CCN(C(=O)c2cc(C3CC3)c(OCC34CC5CC(CC(C5)C3)C4)cc2F)[C@@H]1C(=O)O` [Example 76, (2S,3 S)-1-(4-(adamantan-1-ylmethoxy)-5-cyclopropyl-2-fluorobenzoyl)-3-methoxypyrrolidine-2-carboxylic acid], the IC50 against human NaV1.7 came out at 1000 nM; on NaV1.5 (read-out: Nav1.5), 17000 nM; at hNav1.7, 87 nM.
`O=C(NC1(C(=O)O)COC1)c1cc(C2CC2)c(OCC23CC4CC(CC(C4)C2)C3)cc1F` [Example 77, 3-(4-(adamantan-1-ylmethoxy)-5-cyclopropyl-2-fluorobenzamido)oxetane-3-carboxylic acid]: the IC50 was 11000 nM against human NaV1.7, 12000 nM at NaV1.5 (read-out: Nav1.5) and 7400 nM on hNav1.7.
On the same counts, the results for `O=C(O)C1SCCN1C(=O)c1cc(C2CC2)c(OCC23CC4CC(CC(C4)C2)C3)cc1F` (stereo not drawn) [Example 78, 3-(4-(adamantan-1-ylmethoxy)-5-cyclopropyl-2-fluorobenzoyl)thiazolidine-2-carboxylic acid] are 87 nM, 13000 nM and 9.4 nM.
In the case of `O=C(O)[C@@H]1CCCCN1C(=O)c1cc(C2CC2)c(OCC23CC4CC(CC(C4)C2)C3)cc1F` [Example 83, (S)-1-(4-(adamantan-1-ylmethoxy)-5-cyclopropyl-2-fluorobenzoyl)piperidine-2-carboxylic acid], the IC50 was 2000 nM against human NaV1.7, 14000 nM on NaV1.5 (read-out: Nav1.5) and 480 nM at hNav1.7.
On to `O=C(O)C[C@H](NC(=O)c1cc(C2CC2)c(OCC23CC4CC(CC(C4)C2)C3)cc1F)C(=O)O` [Example 84, (S)-2-(4-(adamantan-1-ylmethoxy)-5-cyclopropyl-2-fluorobenzamido)succinic acid], for which the IC50 against human NaV1.7 was 17000 nM; at NaV1.5 (setting [1]) it was not below 30000 nM; at hNav1.7, not below 10000 nM.
In the case of `O=C(O)[C@@H]1CCCN1C(=O)c1ccc(OCC23CC4CC(CC(C4)C2)C3)c(C(F)(F)F)c1` [Example 85, (S)-1-(4-(adamantan-1-ylmethoxy)-3-(trifluoromethyl)benzoyl)-pyrrolidine-2-carboxylic acid], the IC50 against human NaV1.7 stood at 1100 nM; at NaV1.5 (read-out: Nav1.5) it was 17000 nM; on hNav1.7, 590 nM.
Turning to `O=C(O)[C@@H]1CCN1C(=O)c1cc(C2CC2)c(OCC23CC4CC(CC(C4)C2)C3)cc1F` [Example 86, (S)-1-(4-(adamantan-1-ylmethoxy)-5-cyclopropyl-2-fluorobenzoyl)azetidine-2-carboxylic acid], the IC50 at human NaV1.7 came to 1900 nM; on NaV1.5 (read-out: Nav1.5), 26000 nM; at hNav1.7 it was 1600 nM.
On the same counts, the results for `CC[C@H](NC(=O)c1cc(C2CC2)c(OCC23CC4CC(CC(C4)C2)C3)cc1F)C(=O)O` [Example 87, (S)-2-(4-(adamantan-1-ylmethoxy)-5-cyclopropyl-2-fluorobenzamido)butanoic acid] are 1300 nM, 7100 nM and 56 nM.
On the same counts, the results for `CC(C)C[C@H](NC(=O)c1cc(C2CC2)c(OCC23CC4CC(CC(C4)C2)C3)cc1F)C(=O)O` [Example 88, (S)-2-(4-(adamantan-1-ylmethoxy)-5-cyclopropyl-2-fluorobenzamido)-4-methylpentanoic acid] are 7000 nM, 8200 nM and 430 nM.
For `CCc1cc(C(=O)N2CCC[C@H]2C(=O)O)c(F)cc1OCC12CC3CC(CC(C3)C1)C2` [Example 89, (S)-1-(4-(adamantan-1-ylmethoxy)-5-ethyl-2-fluorobenzoyl)pyrrolidine-2-carboxylic acid], the IC50 against human NaV1.7 came out at 790 nM; on NaV1.5 (read-out: Nav1.5), 17000 nM; on hNav1.7, 130 nM.
As for `CC1(C)[C@H]2CC[C@H](COc3cc(F)c(C(=O)N4CCC[C@H]4C(=O)O)cc3C3CC3)[C@@H]1C2` [Example 90, (S)-1-(5-cyclopropyl-4-(((1S, 2S, 5S)-6,6-dimethylbicyclo[3.1.1]heptan-2-yl)methoxy)-2-fluorobenzoyl)pyrrolidine-2-carboxylic acid], the IC50 on human NaV1.7 amounted to 160 nM; on NaV1.5 (read-out: Nav1.5) it was 13000 nM; at hNav1.7, 21 nM.
`CC(c1cc(Cl)cc(Cl)c1)N1CCC(COc2cc(F)c(C(=O)N3C[C@H](F)C[C@H]3C(=O)O)cc2C2CC2)CC1` (stereo partly drawn) [Example 91, (2S, 4R)-1-(5-cyclopropyl-4-((1-(1-(3,5-dichlorophenyl)ethyl)piperidin-4-yl)methoxy)-2-fluorobenzoyl)-4-fluoropyrrolidine-2-carboxylic acid]: the IC50 against human NaV1.7 was found to be 300 nM; on NaV1.5 (read-out: Nav1.5), 23000 nM; on hNav1.7, 15 nM.
Take `O=C(O)[C@@H]1C[C@@H](F)CN1C(=O)c1cc(C2CC2)c(OCC2CCN(Cc3cc(C(F)(F)F)cc(C4CC4)n3)CC2)cc1F` [Example 93, (2S, 4R)-1-(5-cyclopropyl-4-((1-((6-cyclopropyl-4-(trifluoromethyl)-pyridin-2-yl)methyl)piperidin-4-yl)methoxy)-2-fluorobenzoyl)-4-fluoropyrrolidine-2-carboxylic acid]: the IC50 at human NaV1.7 was 660 nM; against NaV1.5 (setting [1]), not below 30000 nM; at hNav1.7 it was 81 nM.
